# Test results reported in ChEMBL document CHEMBL1201862, “PubChem BioAssay data set” (2004).
# Calls of active or inactive are those of the source.
# Legend:
# [1] = biological target: Induced myeloid leukemia cell differentiation protein Mcl-1 (Homo sapiens, UniProt Q07820); assay: MCL1-BIM BH3 interaction inhibitors, dose response, biochemical, fluorescence polarization, BIM-BH3 peptide, 1536-well (AID 2217)
# [2] = biological target: Bcl-2-like protein 1 (Homo sapiens, UniProt Q07817); assay: BCL-XL inhibitors, dose response, selectivity assay for MCL1 inhibitor project, biochemical, fluorescence polarization, 1536-well (AID 2218)
# [3] = NIH-3T3 fibroblast cytotoxicity, dose response, cytotoxicity control, cell-based, fluorescence, Alamar Blue, secondary assay (AID 2327); assay type: functional;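 also: NIH-3T3 mouse fibroblasts cultured with fluconazole at 8 µg/mL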
# [4] = C. albicans growth with fluconazole, confirmation, fluorescence, retest (AID 2467); assay type: functional, cell-based
# [5] = biological target: T1, Sphingosine 1-phosphate receptor 4 (Homo sapiens, UniProt O95977); assay: Fluorescence dose response cell-based high throughput screening assay for antagonists of the Sphingosine 1-Phosphate Receptor 4 (S1P4). [Related pubchem assays: 1524 (Confirmation in triplicates.), 1510 (Primary screen.)]; assay type: functional
# T1 sequence (O95977 whole entry): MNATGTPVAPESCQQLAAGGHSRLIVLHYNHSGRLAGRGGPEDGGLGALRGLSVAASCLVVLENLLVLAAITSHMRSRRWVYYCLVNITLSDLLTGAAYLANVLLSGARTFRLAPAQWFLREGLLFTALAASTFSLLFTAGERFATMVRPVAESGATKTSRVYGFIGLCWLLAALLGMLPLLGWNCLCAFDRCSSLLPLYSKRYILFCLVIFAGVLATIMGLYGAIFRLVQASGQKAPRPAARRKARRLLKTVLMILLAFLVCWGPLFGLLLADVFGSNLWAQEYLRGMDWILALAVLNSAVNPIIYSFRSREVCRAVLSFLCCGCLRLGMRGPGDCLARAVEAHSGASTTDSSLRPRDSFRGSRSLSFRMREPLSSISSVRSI
# [6] = biological target: Sphingosine 1-phosphate receptor 1 (Homo sapiens, UniProt P21453); assay type: functional;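 also: Tango beta-arrestin reporter U2OS cells stimulated with S1P near its EC80; inhibitor potency meaning antagonism of receptor activation by the natural agonist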
# [7] = biological target: T2, Heat shock factor protein 1 (Mus musculus, UniProt P38532); assay: HSF1 potentiators in luciferase reporter cells, confirmation, cell-based, NIH3T3, luminescence, dose retest (AID 435004); assay type: functional;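 also: stress induced by proteasome inhibitor MG132 added 30 min after compound; luciferase reporter driven by HSF1 response element in NIH3T3 cells; actives raise luminescence as potentiators of the MG132 stress response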
# T2 sequence (P38532 whole entry): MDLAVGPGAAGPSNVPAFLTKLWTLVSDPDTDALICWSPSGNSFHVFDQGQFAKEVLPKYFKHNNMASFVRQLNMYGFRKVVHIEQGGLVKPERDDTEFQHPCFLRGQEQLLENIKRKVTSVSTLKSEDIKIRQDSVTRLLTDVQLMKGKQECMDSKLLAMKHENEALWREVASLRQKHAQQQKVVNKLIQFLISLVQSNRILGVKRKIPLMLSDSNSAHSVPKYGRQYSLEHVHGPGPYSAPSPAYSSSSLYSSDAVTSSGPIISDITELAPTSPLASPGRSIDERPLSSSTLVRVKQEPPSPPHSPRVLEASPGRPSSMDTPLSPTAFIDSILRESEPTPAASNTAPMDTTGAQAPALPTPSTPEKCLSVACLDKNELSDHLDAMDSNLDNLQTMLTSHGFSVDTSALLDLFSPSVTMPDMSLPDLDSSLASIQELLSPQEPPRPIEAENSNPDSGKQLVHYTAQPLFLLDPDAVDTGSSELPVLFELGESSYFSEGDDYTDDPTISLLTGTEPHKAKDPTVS
# [8] = biological target: T3, Replicative DNA helicase DnaB (Mycobacterium tuberculosis, UniProt P9WMR3); assay: DnaB intein splicing inhibitors, dose response, biochemical, cell-free fluorescence (AID 449749); assay type: functional
# T3 sequence (P9WMR3 whole entry): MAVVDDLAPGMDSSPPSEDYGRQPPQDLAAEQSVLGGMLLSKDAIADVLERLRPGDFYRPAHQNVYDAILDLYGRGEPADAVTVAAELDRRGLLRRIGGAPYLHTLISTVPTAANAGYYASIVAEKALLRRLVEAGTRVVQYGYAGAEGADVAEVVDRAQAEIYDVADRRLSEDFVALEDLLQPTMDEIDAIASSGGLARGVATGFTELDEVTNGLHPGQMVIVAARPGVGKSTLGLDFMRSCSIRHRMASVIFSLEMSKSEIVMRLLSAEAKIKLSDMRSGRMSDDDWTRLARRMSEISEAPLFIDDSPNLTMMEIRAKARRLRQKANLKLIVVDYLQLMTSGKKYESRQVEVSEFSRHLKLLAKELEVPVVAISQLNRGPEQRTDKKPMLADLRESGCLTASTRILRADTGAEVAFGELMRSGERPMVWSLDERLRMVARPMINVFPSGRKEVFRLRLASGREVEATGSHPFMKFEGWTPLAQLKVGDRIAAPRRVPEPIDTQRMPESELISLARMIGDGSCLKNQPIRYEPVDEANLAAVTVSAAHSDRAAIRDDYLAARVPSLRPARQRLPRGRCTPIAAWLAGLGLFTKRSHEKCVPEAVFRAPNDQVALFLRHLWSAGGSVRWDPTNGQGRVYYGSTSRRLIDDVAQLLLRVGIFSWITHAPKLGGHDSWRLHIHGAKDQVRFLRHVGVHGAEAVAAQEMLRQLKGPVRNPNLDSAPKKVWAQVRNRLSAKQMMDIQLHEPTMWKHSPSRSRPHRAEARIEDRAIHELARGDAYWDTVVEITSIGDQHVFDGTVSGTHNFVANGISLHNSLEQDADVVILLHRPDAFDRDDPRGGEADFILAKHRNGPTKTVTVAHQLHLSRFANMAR
# [9] = biological target: T4, Protein RecA (Mycobacterium tuberculosis, UniProt P9WHJ3); assay: Fluorescence Cell-Free Homogeneous Dose Retest to Identify Inhibitors of RecA-Intein Splicing Activity. [Related pubchem assays (depositor defined):AID2097, AID2223, AID489010, AID492950]; assay type: functional
# T4 sequence (P9WHJ3 whole entry): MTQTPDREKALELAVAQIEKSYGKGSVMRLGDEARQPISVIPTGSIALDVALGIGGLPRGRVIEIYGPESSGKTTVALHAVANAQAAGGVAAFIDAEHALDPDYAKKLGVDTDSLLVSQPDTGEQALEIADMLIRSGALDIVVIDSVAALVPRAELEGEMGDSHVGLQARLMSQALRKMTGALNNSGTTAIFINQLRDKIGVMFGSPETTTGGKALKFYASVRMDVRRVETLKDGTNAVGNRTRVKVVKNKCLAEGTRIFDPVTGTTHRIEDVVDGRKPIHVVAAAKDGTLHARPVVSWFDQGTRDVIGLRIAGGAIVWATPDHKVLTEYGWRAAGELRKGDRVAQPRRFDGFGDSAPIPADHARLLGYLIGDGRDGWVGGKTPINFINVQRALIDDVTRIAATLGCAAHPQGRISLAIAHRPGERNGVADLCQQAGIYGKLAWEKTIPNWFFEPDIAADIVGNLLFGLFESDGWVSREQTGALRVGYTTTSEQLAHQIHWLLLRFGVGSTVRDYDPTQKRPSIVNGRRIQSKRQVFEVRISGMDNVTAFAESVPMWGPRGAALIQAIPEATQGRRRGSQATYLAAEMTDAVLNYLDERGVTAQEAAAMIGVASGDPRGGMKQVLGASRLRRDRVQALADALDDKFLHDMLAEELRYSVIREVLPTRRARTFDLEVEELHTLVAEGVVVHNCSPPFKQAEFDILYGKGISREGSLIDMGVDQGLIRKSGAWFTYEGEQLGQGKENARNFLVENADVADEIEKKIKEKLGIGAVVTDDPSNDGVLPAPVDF
# Sphingosine 1-phosphate receptor 1, sequence (P21453 whole entry): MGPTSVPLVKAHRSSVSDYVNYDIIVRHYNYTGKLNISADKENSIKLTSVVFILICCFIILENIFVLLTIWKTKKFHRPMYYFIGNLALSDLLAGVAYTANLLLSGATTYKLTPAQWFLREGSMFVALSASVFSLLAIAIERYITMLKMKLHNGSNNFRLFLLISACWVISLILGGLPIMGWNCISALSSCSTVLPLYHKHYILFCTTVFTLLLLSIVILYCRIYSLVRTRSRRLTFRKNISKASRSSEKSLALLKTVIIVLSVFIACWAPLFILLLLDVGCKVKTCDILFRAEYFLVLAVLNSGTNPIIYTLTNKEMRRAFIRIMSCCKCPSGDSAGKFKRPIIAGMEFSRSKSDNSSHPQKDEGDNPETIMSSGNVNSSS
# Bcl-2-like protein 1, sequence (Q07817 whole entry): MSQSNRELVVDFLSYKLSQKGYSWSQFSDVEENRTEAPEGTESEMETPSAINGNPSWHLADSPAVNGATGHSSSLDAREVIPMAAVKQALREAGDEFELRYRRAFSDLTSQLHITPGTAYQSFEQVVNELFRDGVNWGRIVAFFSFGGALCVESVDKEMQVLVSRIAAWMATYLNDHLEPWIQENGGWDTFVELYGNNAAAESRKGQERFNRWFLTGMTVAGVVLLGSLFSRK
# Induced myeloid leukemia cell differentiation protein Mcl-1, sequence (Q07820 whole entry): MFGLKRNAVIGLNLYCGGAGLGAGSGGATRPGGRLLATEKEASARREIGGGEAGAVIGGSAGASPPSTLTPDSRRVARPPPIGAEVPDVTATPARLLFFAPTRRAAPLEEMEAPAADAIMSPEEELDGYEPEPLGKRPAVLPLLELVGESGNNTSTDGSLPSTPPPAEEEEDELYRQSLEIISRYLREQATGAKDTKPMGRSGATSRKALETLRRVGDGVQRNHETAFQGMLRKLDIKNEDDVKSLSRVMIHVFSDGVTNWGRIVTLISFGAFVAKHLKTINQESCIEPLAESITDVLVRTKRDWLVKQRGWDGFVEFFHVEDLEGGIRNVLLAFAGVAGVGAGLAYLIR
Structure (SMILES),IC50 [1],IC50 [2],EC50 [3],EC50 [4],IC50 [5],IC50 [6],EC50 [7],AC50 [8],EC50 [9]
Cc1ccccc1OCC(=O)OCC(=O)Nc1ncc(Cl)c(C)c1Cl,15.7 µM (not active),30.4 µM (not active),–,–,–,–,–,–,–
COc1cccc(-n2nnnc2S(C)(=O)=O)c1,–,–,3.96 µM (inconclusive),1.76 µM (active),1.26 µM (active),23.6 µM (not active),6.59 µM (active),3.14 µM (active),1.1 µM (active)
